Data published in patent US11850253B2, “Two component compositions” (Asamedic AS, priority 2017, dated 2023).

Experiment: Dissolution of ASA together with sodium carbonate (one component) in 15 ml pure water in two-component device
Assay type: physicochemical
Protocol: In the following example ASA and the disodium salt of carbonic acid (Na2CO3) are dissolved at the same time in 15 ml pure water.
300 mg ASA and 258-263 mg sodium carbonate (Na2CO3) were placed together in the powder compartment of the test device used in example 1, and 15 ml of pure water was filled into the container (bottle) of said device. After releasing the ASA and sodium carbonate into the water, the solution was shaken until all ASA was dissolved.

## CC(=O)Oc1ccccc1C(=O)O [ASA, acetylsalicylic acid]
300 mg ASA and 258-263 mg Na2CO3, 15 ml pure water
  pH of the solutions after dissolution of ASA and the carbonate salt: 9.41-9.43
300 mg ASA and 258-263 mg Na2CO3 together as powder, 15 ml pure water
  Time before ASA was dissolved: approx. 120 sec.
